Test results: patent publication US10232013B2, “Use of an antimicrobial peptide TP4 in treating a cancer” (Academia Sinica, priority 2016, dated 2019)
Marks after values point to notes of the source that are not given here. Where no end group is shown, it is not given here.

Columns and labels:
[1] = system: MB231 tumors; design: species or system BALB/c nu/nu mice; conditions: in vivo
Excerpt: Female BALB/c nu/nu mice were obtained from BioLASCO Taiwan, Co., Ltd., and housed at the Laboratory Animal Facility, National Taiwan Ocean University, Keelung, Taiwan. Mice were maintained in pathogen-free sterile isolators, according to the guidelines of the Council of Agriculture (COA, Taiwan), and all food, water, caging, and bedding were sterilized before use. The animal protocol (103034) was approved by the Institutional Animal Care and Use Committee (IACUC) of the College of Life Science, National Taiwan Ocean University. For the TP4 treatment assay, nude mice with pre-growth MB231 tumors (n=5 for each group) were subcutaneously injected with TP4 (500 μg in 50 μL distilled water plus 10 μL KY jelly (Johnson & Johnson)) every two days for a total of fourteen times, by which time the tumors had reached an average volume of 30-50 mm^3 in size. Age-matched control nude mice without tumor xenografts were injected with KY jelly (10 μL plus 50 μL distilled water). Tumor size was calculated every two days, using the following formula: volume=[(height×length×width)×3.1416]/6. Mice were sacrificed 28 days after the beginning of TP4 treatment, and the tumors were harvested and weighed. Tumor samples were fixed with formalin and embedded with paraffin. Paraffin sections were stained by Hematoxylin & Eosin (H&E) and immunostained with Ki-67 antibody (Cell Signaling, clone D2H10, 1:100). […]

[2] = system: MB453 (MDA-MB453) cells; test: MTS cell viability assay, MB453; type: cell-based, human; conditions: mean±SD
Experimental: Cell-lines used in this study were purchased from the Bioresource Collection and Research Center (BCRC) in and the cells were cultured by the standard cell culture procedures and conditions provided by the BCRC. MB231 (BCRC 60425), MB453 (BCRC 60429), and HDF cells were cultured as previously described by Ting et al. MCF7 […] cells were maintained in α-MEM medium (ThermoFisher Scientific) supplemented with 2 mM L-glutamine, 10% FBS, 0.1 mM non-essential amino acids, 1 mM sodium pyruvate, and antibiotics (100 U mL^−1 penicillin G and […] streptomycin). M10 (BCRC 60197) cells were maintained in α-MEM medium (ThermoFisher Scientific) supplemented with 10% FBS and antibiotics. With the exception of MB231 and MB453, all cells were cultured at 37° C. with 5% CO2. For the cell viability and transfection assay, 1×10^4 cells [5×10^3 M10 cells were seeded and cultured for 48 h to allow the cells sufficient time for attachment] were seeded into the wells of a 96-well plate and cultured overnight. For the transfection assays, cells were transfected with 0.1-0.4 μg FOSB/FOSAB expression plasmid (Origene Technology Inc.) and cell viability was determined after 72 h. The transfection efficiencies (number of cells expressing eGFP/all cells) of the MB231 transfection assays were determined by observing ten randomly selected fields (from three independent transfections) of control GFP plasmid transfections under an inverted microscope (Olympus, IX71) coupled to a digital camera (Olympus DP80), using an […] (LCPlanFI 20×/0.40 Ph1). CellSens standard software (Olympus) was used for image acquisition. During the drug treatment assay, inhibitors (PD98059, BAPTA-AM, and AlP II) were added 30 min prior to TP4, and cell viability was determined at indicated time-points. Transfection was performed using LipofectAMINE™ 3000 (ThermoFisher Scientific), according to the manufacturer's recommendations. Knock-down cells were generated by transducing MB231 cells with pre-synthesized FOSB (or control) shRNA lentiviral particles (Santa Cruz Biotechnology), and selecting puromycin-resistant cells in accordance with the manufacturer's standard protocol. MB231 or M10 cells stably expressing eGFP or mOrange2 were generated through transfection with peGFP-puromycin or pmOrange2-C1 plasmid, followed by puromycin (5 μg mL^−1) or G418 (500 μg mL^−1) selection as described above.
Cell viability was quantitatively analyzed using the CellTiter-Glo® Luminescent Cell Viability Assay kit (ATP assay) and CellTiter 96® AQueous Non-Radioactive Cell Proliferation Assay kit (MTS assay) (Promega) in accordance with the manufacturer's protocol. For MTS assay, 1×10^4 cells were seeded into the wells of a 96-well plate and cultured overnight [5×10^3 M10 cells were seeded and cultured for 48 h to enable sufficient well attachment]. Cells were subsequently treated with different doses of TP4 (2.5-20 μg mL^−1) and harvested at the indicated time-points (3-24 h). Reaction mixtures (20 μL: MTS+PMS, using a ratio 20:1) were directly added to the cells, and the plates were incubated for 3 h at 37° C. Absorbance at 490 nm is directly proportional to the number of living cells in culture and was measured using a photometer (SpectraMax® i3, Molecular Devices). ATP assay was performed as previously described by Ting et al. Lactate dehydrogenase (LDH) assays were performed by quantitatively measuring cell lysis with a Cytotoxicity Detection Kit^PLUS (LDH) (Roche) in accordance with the manufacturer's protocol. The LDH standard was purchased from Cayman Chemical. Briefly, 1×10^4 cells were seeded into the wells of a 96-well plate and cultured overnight. Culture media were replaced with fresh medium containing 1% FBS and cells were subsequently treated with different doses of TP4 (2.5-20 μg mL^−1). Supernatants were harvested at 3 h. […]

FIHHIIGGLFSAGKAIHRLIRRRRR [TP4, tilapia piscidin 4]
mouse body weight [1]: no significant differences | body weight and adverse side-effects ([1]; mouse): without affecting body weight or causing adverse side-effects | Cellular toxicity (cell viability), MTS assay ([2]; MB453, TP4 2.5 μg/mL, 3 h): 93.75 ± 4.33^d | Cellular toxicity (cell viability), MTS assay ([2]; MB453, TP4 2.5 μg/mL, 6 h): 86.51 ± 4.19^d | Cellular toxicity (cell viability), MTS assay ([2]; MB453, TP4 2.5 μg/mL, 12 h): 92.21 ± 6.61^d | Cellular toxicity (cell viability), MTS assay ([2]; MB453, TP4 2.5 μg/mL, 24 h): 87.84 ± 4.75^d | Cellular toxicity (cell viability), MTS assay ([2]; MB453, TP4 5.0 μg/mL, 3 h): 91.50 ± 4.32^d | Cellular toxicity (cell viability), MTS assay ([2]; MB453, TP4 5.0 μg/mL, 6 h): 76.46 ± 6.25^d | Cellular toxicity (cell viability), MTS assay ([2]; MB453, TP4 5.0 μg/mL, 12 h): 80.18 ± 5.41^d | Cellular toxicity (cell viability), MTS assay ([2]; MB453, TP4 5.0 μg/mL, 24 h): 87.00 ± 4.16^d | Cellular toxicity (cell viability), MTS assay ([2]; MB453, TP4 10.0 μg/mL, 3 h): 77.82 ± 4.33^d | Cellular toxicity (cell viability), MTS assay ([2]; MB453, TP4 10.0 μg/mL, 6 h): 58.58 ± 5.43^d | Cellular toxicity (cell viability), MTS assay ([2]; MB453, TP4 10.0 μg/mL, 12 h): 62.25 ± 10.74^d | Cellular toxicity (cell viability), MTS assay ([2]; MB453, TP4 10.0 μg/mL, 24 h): 77.24 ± 4.07^d | Cellular toxicity (cell viability), MTS assay ([2]; MB453, TP4 15.0 μg/mL, 3 h): 53.12 ± 10.90^d | Cellular toxicity (cell viability), MTS assay ([2]; MB453, TP4 15.0 μg/mL, 6 h): 27.09 ± 2.54^d | Cellular toxicity (cell viability), MTS assay ([2]; MB453, TP4 15.0 μg/mL, 12 h): 27.32 ± 5.51^d | Cellular toxicity (cell viability), MTS assay ([2]; MB453, TP4 15.0 μg/mL, 24 h): 58.93 ± 2.80^d | Cellular toxicity (cell viability), MTS assay ([2]; MB453, TP4 20.0 μg/mL, 3 h): 36.33 ± 5067^d | Cellular toxicity (cell viability), MTS assay ([2]; MB453, TP4 20.0 μg/mL, 6 h): 18.25 ± 1.80^d | Cellular toxicity (cell viability), MTS assay ([2]; MB453, TP4 20.0 μg/mL, 12 h): 15.02 ± 4.28^d | Cellular toxicity (cell viability), MTS assay ([2]; MB453, TP4 20.0 μg/mL, 24 h): 40.15 ± 2.66^d
